# Measured values as given in patent publication US20140154389A1, “PRODUCTION OF CHEESE WITH S. THERMOPHILUS” (DuPont Nutrition BioSciences ApS, priority 2011, published 2014).
# Tested on: urease enzyme of ur(+) S. thermophilus
# Experiment: Floating curd experiment in test tubes (Example 3)
# Set-up: species or system Streptococcus thermophilus
# Settings: milk fermented at 35° C. to pH 4.65, sample heated at about 66° C. for 2 x 10 minutes; flurofamide added to the blend of Lactococci and ur(+) S. thermophilus
# Protocol: Four experiments were conducted in which milk was treated with various bacteria. In experiment 1, only Lactococci bacteria were added. In experiment 2, a blend of Lactococci bacteria and ur(+) S. thermophilus bacteria were added. In experiment 3, a blend of Lactococci bacteria, ur(+) S. thermophilus bacteria, and the urease inhibitor flurofamide were added. In experiment 4, only ur(+) S. thermophilus bacteria were added.
# In each experiment, the milk was fermented with the bacteria at 35° C. until the cheese reached a pH of 4.65. A sample of the cheese was placed into a test tube, which was heated at about 66° C. for about 10 minutes. After 10 minutes of heating, a small pipette or thin wire was used to agitate the sample. The samples were held at about 66° C. for another ten minutes, at which time the photograph of the test tubes depicted in FIG. 3, was taken.
# Test tube 4 is a positive control that contains ur(+) S. thermophilus, which has urease enzymes that can hydrolyze urea in milk.
compound,measurement,value
NP(N)(=O)NC(=O)c1ccc(F)cc1 [flurofamide],floating curd in test tube,no floating curd
